From US4758565A, “Substituted pyrimidoquinoxalines useful as anti-anaerobic agents” (G. D. Searle & Co., priority 1986, dated 1988)
Values after ≈ are worked out from the molar mass of the structure shown.

Key:
[1] = test system: B. fragilis NCTC 10581; test: Screening panel of Bacteroides fragilis, MIC and MBC, strain A; assay type: cell-based; details: for MIC: NCTC10581, 48 hours at 37° C., anaerobic, read-out: Minimum Inhibitory Concentration (MIC); for MBC: NCTC10581, less than 5 colonies (99.9% reduction) after 48 hours, read-out: Minimum Bactericidal Concentration (MBC)
Description: (§1) The screening panel utilized in this example consisted of 5 strains of Bacteroides fragilis. All assays were carried out in 96-well microtitre plates. If an isolate was obtained from either a culture collection or clinical source, the isolate was immediately inoculated into Wilkins-Chalgren broth (Oxoid) and incubated at 37° C. in an anaerobic chamber in an atmosphere of 85% nitrogen, 10% carbon dioxide, and 5% hydrogen for 48 hours. At the end of this time, the viable count was about […] broth. A 1 ml aliquot of each culture was placed in an ampoule and quick frozen in acetone-dry ice mixture and stored in liquid nitrogen. […] A 2 mg sample of the test compound was dissolved in 0.2 ml of a suitable solvent such as dimethylsulfoxide, polyethylene glycol 200 or methanol. […] After addition of the test solution the final inoculum level was 10^5 cells/ml. The plates were incubated for 48 hours at 37° C. in the anaerobic chamber. The Minimum Inhibitory Concentration (MIC) was read visually. The MIC is defined as the lowest concentration at which there is no detectable growth. The Minimum Bactericidal Concentration (MBC) was determined by taking 50 μ l aliquot from each well and placing it in fresh medium. […] The strains of Bacteroides fragilis utilized in the above procedure are identified by letter in accordance with the following legend: |A B. fragilis NCTC 10581

[2] = test system: B. fragilis NCTC 9344; test: Screening panel of Bacteroides fragilis, MIC and MBC, strain C; assay type: cell-based; details: for MBC / MIC: Bacteroides fragilis; for MBC: NCTC9344, 48 h, read-out: Minimum Bactericidal Concentration (MBC); for MIC: NCTC9344, 48 hours at 37° C., anaerobic, read-out: Minimum Inhibitory Concentration (MIC)
Description: as §1, with “|C” for “|A”, “9344” for “10581”

[3] = test system: B. fragilis NCTC 9353; test: Screening panel of Bacteroides fragilis, MIC and MBC, strain B; assay type: cell-based; details: for MIC / MBC: Bacteroides fragilis, NCTC9353, 48 h; for MIC: read-out: Minimum Inhibitory Concentration (MIC); for MBC: read-out: Minimum Bactericidal Concentration (MBC)
Description: as §1, with “|B” for “|A”, “9353” for “10581”

[4] = test system: B. fragilis WS-1; test: Screening panel of Bacteroides fragilis, MIC and MBC, strain E; assay type: cell-based; details: WS1, 48 h; for MIC: 48 hours at 37° C., anaerobic, read-out: Minimum Inhibitory Concentration (MIC); for MBC: less than 5 colonies (99.9% reduction) after 48 hours, read-out: Minimum Bactericidal Concentration (MBC)
Description: as §1, with “|E” for “|A”, “WS-1* | *Obtained from St. Thomas's Hospital Medical School, London, United | Kingdom.” for “NCTC 10581”

[5] = test system: B. fragilis MZ-R ATCC 11295; test: Screening panel of Bacteroides fragilis, MIC and MBC, strain D; assay type: cell-based; details: ATCC11295, 48 h; for MIC: 48 hours at 37° C., anaerobic, read-out: Minimum Inhibitory Concentration (MIC); for MBC: less than 5 colonies (99.9% reduction) after 48 hours, read-out: Minimum Bactericidal Concentration (MBC)
[6] = test system: Clostridium difficile NCIB 10666; test: MIC vs panel of anaerobes; assay type: cell-based; details: Clostridioides difficile, NCIB10666, procedures of Example 11 (mg/L)
[7] = test system: Fusobacterium necrophorum ATCC 11295; test: MIC vs panel of anaerobes; assay type: cell-based; details: ATCC11295, procedures of Example 11 (mg/L)
[8] = test system: Propionebacterium acnes NCTC 7337; test: MIC vs panel of anaerobes; assay type: cell-based; details: procedures of Example 11 (mg/L)
[9] = test system: Campylobacter fetus ss. jejuni ATCC 29428; test: MIC vs panel of anaerobes; assay type: cell-based; details: ATCC29428, procedures of Example 11 (mg/L)
[10] = test system: Clostridium perfringens NCTC 523; test: microbe, parasite or virus in culture; assay type: cell-based; details: NCTC523
[11] = test system: Campylobacter fetus ss. jejuni NCTC 10842; test: MIC vs panel of anaerobes; assay type: cell-based; details: NCTC10842, procedures of Example 11 (mg/L)
[12] = test system: Peptostreptococcus anaerobius; test: MIC vs panel of anaerobes; assay type: cell-based; details: procedures of Example 11 (mg/L)
[13] = test system: Bacteroides melanogenicus NCTC 9336; test: MIC vs panel of anaerobes; assay type: cell-based; details: NCTC9336, procedures of Example 11 (mg/L)
[14] = test system: Peptococcus magnus; test: MIC vs panel of anaerobes; assay type: cell-based; details: Finegoldia magna, procedures of Example 11 (mg/L)
[15] = test system: Fusobacterium necrophorum ATCC 25286; test: MIC vs panel of anaerobes; assay type: cell-based; details: ATCC25286, procedures of Example 11 (mg/L)
[16] = test system: B. fragilis 23745; test: In vivo anti-anaerobe activity, mouse hepatic necrosis; details: 40 mg/kg (p.o)
[17] = less than 5 colonies (99.9% reduction) after 48 hours

Row | SMILES | MIC [1] [µg/mL] | MBC [1] [µg/mL] | MBC [2, 17] [µg/mL] | MIC [2] [µg/mL] | MIC ([3]; 48 hours at 37° C., anaerobic) [µg/mL] | MBC [3, 17] [µg/mL] | MIC [4] [µg/mL] | MBC [4] [µg/mL] | MIC [5] [µg/mL] | MBC [5] [µg/mL] | MIC [6] [µg/mL] | MIC [7] [µg/mL] | MIC [8] [µg/mL] | MIC [9] [µg/mL] | MIC [10] [µg/mL] | MIC [11] [µg/mL] | MIC [12] [µg/mL] | MIC [13] [µg/mL] | further results
1 | CCC1(C)CN=C2C(c3ccc(C)cc3)=[N+]([O-])c3cc(C(F)(F)F)ccc3N2C1 (stereo not drawn) [Example 6, 2,3-Dihydro-2-ethyl-2-methyl-5-(4-methylphenyl)-8-trifluoromethyl-1H-pyrimdo [1,2-a]quinoxaline 6-oxide] | 6.2 (≈ 15.4 µM) | 6.2 (≈ 15.4 µM) | 3.1 (≈ 7.72 µM) | 3.1 (≈ 7.72 µM) | 6.2 (≈ 15.4 µM) | 6.2 (≈ 15.4 µM) | 3.1 (≈ 7.72 µM) | 3.1 (≈ 7.72 µM) | 1.5 (≈ 3.74 µM) | 3.1 (≈ 7.72 µM) | – | – | – | – | – | – | – | – | –
2 | CC1(C)CN=C2C(c3ccccc3)=[N+]([O-])c3cc(C(F)(F)F)ccc3N2C1 [Example 1, 2,3-Dihydro-2,2-dimethyl-5-phenyl-8-trifluoromethyl-1H-pyrimido[1,2-a]quinoxaline 6-oxide] | 3.1 (≈ 8.3 µM) | 3.1 (≈ 8.3 µM) | 3.1 (≈ 8.3 µM) | 1.5 (≈ 4.02 µM) | 1.5 (≈ 4.02 µM) | 1.5 (≈ 4.02 µM) | 1.5 (≈ 4.02 µM) | 1.5 (≈ 4.02 µM) | 0.8 (≈ 2.14 µM) | 0.8 (≈ 2.14 µM) | < 0.8 | 1.5 (≈ 4.02 µM) | 100 (≈ 268 µM) | 100 (≈ 268 µM) | 1.5 (≈ 4.02 µM) | > 100 | 100 (≈ 268 µM) | > 100 | –
3 | CC1(C)CN=C2C(c3ccccc3)=[N+]([O-])c3cccc(F)c3N2C1 [Example 5, 2,3-Dihydro-2,2-dimethyl-10-fluoeo-5-phenyl-1H-pyrimido [1,2-a]quinoxaline 6-oxide] | < 0.8 | 1.5 (≈ 4.64 µM) | < 0.8 | < 0.8 | < 0.8 | < 0.8 | < 0.8 | < 0.8 | < 0.8 | < 0.8 | – | – | – | – | – | – | – | – | –
4 | CCC1(C)CN=C2C(c3ccccc3)=[N+]([O-])c3cc(C(F)(F)F)ccc3N2C1 (stereo not drawn) [Example 4, 2,3-Dihydro-2-ethyl-2-methyl-5-phenyl-8-trifluoromethyl-1H-pyrimido [1,2-a]quinoxaline 6-oxide] | < 0.8 | 1.5 (≈ 3.87 µM) | < 0.8 | < 0.8 | < 0.8 | < 0.8 | < 0.8 | < 0.8 | < 0.8 | < 0.8 | – | – | – | – | – | – | – | – | –
5 | Cc1ccc(C2=[N+]([O-])c3cc(C(F)(F)F)ccc3N3CC(C)(C)CN=C23)cc1 [Example 3, 2,3-Dihydro-2,2-dimethyl-5-(4-methylphenyl)-8-trifluoromethyl-1H-pyrimid [1,2-a]quinoxaline 6-oxide] | < 0.8 | < 0.8 | 3.1 (≈ 8 µM) | 3.1 (≈ 8 µM) | 1.5 (≈ 3.87 µM) | 1.5 (≈ 3.87 µM) | < 0.8 | 1.5 (≈ 3.87 µM) | 1.5 (≈ 3.87 µM) | 6.2 (≈ 16 µM) | < 0.8 | 6.2 (≈ 16 µM) | > 100 | > 100 | < 0.8 | 12.5 (≈ 32.3 µM) | > 100 | > 100 | MIC [14]: > 100 µg/mL; MIC [15]: < 0.8 µg/mL
6 | CC1(C)CN=C2C(c3ccccc3)=[N+]([O-])c3ccc(F)cc3N2C1 [Example 2, 2,3-Dihydro-2,2-dimethyl-9-fluoro-5-phenyl-1H-pyrimido [1,2-a]quinoxaline 6-oxide] | – | – | 1.5 (≈ 4.64 µM) | < 0.8 | < 0.8 | < 0.8 | < 0.8 | < 0.8 | < 0.8 | < 0.8 | 3.1 (≈ 9.59 µM) | 3.1 (≈ 9.59 µM) | 50 (≈ 155 µM) | 25 (≈ 77.3 µM) | 3.1 (≈ 9.59 µM) | 50 (≈ 155 µM) | 1.5 (≈ 4.64 µM) | 50 (≈ 155 µM) | MIC [14]: < 0.8 µg/mL; MIC [15]: < 0.8 µg/mL
7 | Cc1ncc([N+](=O)[O-])n1CCO [Metronidazole, reference compound] | < 0.8 | < 0.8 | 1.5 (≈ 8.76 µM) | < 0.8 | < 0.8 | < 0.8 | – | – | – | – | – | – | – | – | – | – | – | – | Minimum Bactericidal Concentration (MBC) [2, 17]: < 0.8 µg/mL; Minimum Inhibitory Concentration (MIC) ([3]; 48 hours at 37° C., anaerobic): 1.5 µg/mL; Minimum Bactericidal Concentration (MBC) [3, 17]: 1.5 µg/mL; reduction in B. fragilis [16]: 3-3.5 log10
